{"source": "patent US20110294782A1", "about": "“SMALL MOLECULE PAK INHIBITORS” (Massachusetts Institute of Technology, priority 2006, published 2011)", "key": {"[1]": {"target": "T1, PAK1 (Homo sapiens, UniProt Q13153)", "T1 construct": "full length PAK or a PAK catalytic domain expressed on the surface of T7 bacteriophage; host or cells: T7 phage (modified T7 Select 10-3) grown in a BL21-derived E. coli host", "T1 sequence (Q13153 whole entry, the tested form may be a part)": "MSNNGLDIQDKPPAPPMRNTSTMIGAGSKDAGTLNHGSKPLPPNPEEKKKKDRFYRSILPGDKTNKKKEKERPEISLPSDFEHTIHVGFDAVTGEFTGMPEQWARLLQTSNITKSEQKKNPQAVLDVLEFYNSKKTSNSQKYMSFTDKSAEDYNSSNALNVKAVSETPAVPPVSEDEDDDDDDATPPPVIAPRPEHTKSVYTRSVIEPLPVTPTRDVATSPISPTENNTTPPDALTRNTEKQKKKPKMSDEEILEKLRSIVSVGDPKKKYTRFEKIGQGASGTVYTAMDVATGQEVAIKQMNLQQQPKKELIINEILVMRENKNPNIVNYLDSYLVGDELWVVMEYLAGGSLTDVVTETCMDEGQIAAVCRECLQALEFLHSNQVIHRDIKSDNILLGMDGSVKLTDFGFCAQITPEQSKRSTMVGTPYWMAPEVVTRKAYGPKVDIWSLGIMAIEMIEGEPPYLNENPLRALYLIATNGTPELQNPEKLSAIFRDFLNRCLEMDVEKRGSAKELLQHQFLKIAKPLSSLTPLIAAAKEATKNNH", "assay": "Competitive binding assay (Ambit), phage-displayed PAK vs immobilized staurosporine bait", "source_text": "(§1) Binding data were fit to the equation:\n(§2) PFU=L+((H−L)*(Kd(test)/(Kd(test)+[candidate])))"}, "[2]": {"target": "T2, PAK2 (Homo sapiens, UniProt Q13177)", "T2 construct": "full length PAK or a PAK catalytic domain expressed on the surface of T7 bacteriophage; host or cells: T7 phage (modified T7 Select 10-3) grown in a BL21-derived E. coli host", "T2 sequence (Q13177 whole entry, the tested form may be a part)": "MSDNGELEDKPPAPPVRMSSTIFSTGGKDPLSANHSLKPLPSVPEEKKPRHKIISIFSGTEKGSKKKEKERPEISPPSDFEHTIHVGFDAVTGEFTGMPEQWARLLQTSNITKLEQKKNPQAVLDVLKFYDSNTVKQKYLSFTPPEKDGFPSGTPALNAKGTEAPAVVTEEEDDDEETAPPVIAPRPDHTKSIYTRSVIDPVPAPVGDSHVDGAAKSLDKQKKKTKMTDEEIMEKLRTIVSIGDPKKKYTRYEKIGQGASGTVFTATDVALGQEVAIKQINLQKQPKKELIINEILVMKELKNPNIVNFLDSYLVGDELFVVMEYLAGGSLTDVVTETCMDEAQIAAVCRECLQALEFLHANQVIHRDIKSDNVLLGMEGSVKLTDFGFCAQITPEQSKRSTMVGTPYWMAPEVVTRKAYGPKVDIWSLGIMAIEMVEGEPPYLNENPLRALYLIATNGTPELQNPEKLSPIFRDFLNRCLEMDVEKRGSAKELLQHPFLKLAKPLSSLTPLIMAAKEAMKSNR", "assay": "Competitive binding assay (Ambit), phage-displayed PAK vs immobilized staurosporine bait", "source_text": "as §1, §2"}, "[3]": {"target": "T3, PAK6 (Homo sapiens, UniProt Q9NQU5)", "T3 construct": "full length PAK or a PAK catalytic domain expressed on the surface of T7 bacteriophage; host or cells: T7 phage (modified T7 Select 10-3) grown in a BL21-derived E. coli host", "T3 sequence (Q9NQU5 whole entry, the tested form may be a part)": "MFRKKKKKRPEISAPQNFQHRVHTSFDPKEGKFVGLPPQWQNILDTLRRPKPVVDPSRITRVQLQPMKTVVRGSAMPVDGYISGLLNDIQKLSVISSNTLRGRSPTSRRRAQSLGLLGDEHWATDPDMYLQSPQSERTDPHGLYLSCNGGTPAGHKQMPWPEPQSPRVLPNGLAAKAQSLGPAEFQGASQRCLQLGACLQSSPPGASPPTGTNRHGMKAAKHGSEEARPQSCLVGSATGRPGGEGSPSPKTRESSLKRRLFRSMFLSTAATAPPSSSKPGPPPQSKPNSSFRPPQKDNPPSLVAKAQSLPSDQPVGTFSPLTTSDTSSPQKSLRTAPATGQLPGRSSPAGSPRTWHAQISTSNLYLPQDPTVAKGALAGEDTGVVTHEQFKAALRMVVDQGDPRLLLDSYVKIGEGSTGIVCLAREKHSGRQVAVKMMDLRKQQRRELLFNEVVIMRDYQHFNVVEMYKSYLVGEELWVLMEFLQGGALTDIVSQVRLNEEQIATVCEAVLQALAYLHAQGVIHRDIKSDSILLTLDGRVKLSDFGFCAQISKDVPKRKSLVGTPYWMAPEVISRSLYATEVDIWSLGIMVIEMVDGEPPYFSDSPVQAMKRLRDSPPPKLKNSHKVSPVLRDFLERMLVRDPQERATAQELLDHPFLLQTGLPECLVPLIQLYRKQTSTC", "assay": "Competitive binding assay (Ambit), phage-displayed PAK vs immobilized staurosporine bait", "details": "25° C., 1 hour, 0.1% DMSO, read-out: Kd value, Test PAK Inhibitor Affinity Assay", "source_text": "as §1, §2"}, "[4]": {"target": "T4, PAK7 (Homo sapiens, UniProt Q9P286)", "T4 construct": "full length PAK or a PAK catalytic domain expressed on the surface of T7 bacteriophage; host or cells: T7 phage (modified T7 Select 10-3) grown in a BL21-derived E. coli host", "T4 sequence (Q9P286 whole entry, the tested form may be a part)": "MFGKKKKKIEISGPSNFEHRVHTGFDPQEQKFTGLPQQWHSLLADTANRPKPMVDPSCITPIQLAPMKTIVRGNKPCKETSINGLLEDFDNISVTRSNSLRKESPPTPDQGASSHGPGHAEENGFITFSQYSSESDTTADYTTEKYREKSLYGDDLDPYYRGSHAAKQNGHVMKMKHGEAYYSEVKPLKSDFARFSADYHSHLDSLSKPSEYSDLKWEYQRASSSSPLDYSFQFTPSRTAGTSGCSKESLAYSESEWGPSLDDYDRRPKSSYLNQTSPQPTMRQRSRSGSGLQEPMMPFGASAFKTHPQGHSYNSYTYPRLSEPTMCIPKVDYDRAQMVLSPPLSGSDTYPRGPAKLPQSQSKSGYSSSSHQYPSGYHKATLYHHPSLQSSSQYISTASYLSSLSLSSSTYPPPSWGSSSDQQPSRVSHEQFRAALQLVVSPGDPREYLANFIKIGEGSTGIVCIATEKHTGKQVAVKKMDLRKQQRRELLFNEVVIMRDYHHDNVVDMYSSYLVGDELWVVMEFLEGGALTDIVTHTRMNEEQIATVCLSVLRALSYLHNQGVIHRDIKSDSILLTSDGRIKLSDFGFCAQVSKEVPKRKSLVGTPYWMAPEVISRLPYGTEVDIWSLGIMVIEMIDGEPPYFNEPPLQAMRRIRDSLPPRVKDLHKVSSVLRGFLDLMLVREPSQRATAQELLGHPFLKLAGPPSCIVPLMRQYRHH", "assay": "Competitive binding assay (Ambit), phage-displayed PAK vs immobilized staurosporine bait", "details": "25° C., 1 hour, 0.1% DMSO, read-out: Kd value, Test PAK Inhibitor Affinity Assay", "source_text": "as §1, §2"}, "[5]": {"target": "PAK4 (Homo sapiens, UniProt O96013)", "sequence (O96013 whole entry)": "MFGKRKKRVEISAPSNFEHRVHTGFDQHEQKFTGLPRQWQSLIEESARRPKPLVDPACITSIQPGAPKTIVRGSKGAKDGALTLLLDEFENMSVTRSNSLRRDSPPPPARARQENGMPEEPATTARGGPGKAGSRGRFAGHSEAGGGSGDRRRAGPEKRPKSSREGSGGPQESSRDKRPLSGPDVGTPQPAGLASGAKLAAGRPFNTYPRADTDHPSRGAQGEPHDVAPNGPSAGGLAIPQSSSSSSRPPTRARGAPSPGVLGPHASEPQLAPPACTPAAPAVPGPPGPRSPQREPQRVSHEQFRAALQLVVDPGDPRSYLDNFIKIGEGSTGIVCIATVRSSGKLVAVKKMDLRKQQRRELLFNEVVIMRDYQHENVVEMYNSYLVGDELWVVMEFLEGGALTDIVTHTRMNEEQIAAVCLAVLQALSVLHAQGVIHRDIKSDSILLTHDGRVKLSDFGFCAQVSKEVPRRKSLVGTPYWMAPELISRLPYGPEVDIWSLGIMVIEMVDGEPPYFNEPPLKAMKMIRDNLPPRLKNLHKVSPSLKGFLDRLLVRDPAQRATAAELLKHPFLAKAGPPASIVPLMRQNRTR", "assay": "biochemical", "method": "When these three components are combined, the test substance is tested for its ability to compete, in a concentration-dependent manner, with the immobilized kinase bait probe for binding for binding to the phage-PAK catalytic domain. Afterwards, the amount of bait probe-bound phage-PAK can be detected, for example, by a phage plaque assay and/or quantitative PCR of phage DNA. The amount of probe-bound phage-PAK is inversely proportional to the affinity of the candidate inhibitor for the kinase and can be used in determining a Kd value of the test substance for the PAK catalytic site, as described below. […]\nT7 kinase-tagged phage strains were grown in parallel in 24- or 96-well blocks in an E. coli host derived from the BL21 strain. […] Phage titer in the eluates was measured by standard plaque assays or by quantitative PCR. […]\nKd (probe) is the binding constant for the interaction between the kinase and the immobilized ligand, [Probe] is the concentration of the immobilized ligand [test] ½ is the concentration of the free candidate compound at the midpoint of the transition. […] Under these conditions, binding constants measured for the interaction between kinases and candidate compounds (Kd (test)) are therefore independent of the affinity of the immobilized ligand for the kinase (Kd (probe)). […]"}}, "note": "Where two headings read alike, the source gives them in different places.", "data": [{"molecule": "CCOc1cc2ncc(C#N)c(Nc3ccc(F)c(Cl)c3)c2cc1NC(=O)/C=C/CN(C)C", "note": "[EKB-569]", "values": [{"measurement": "Kd", "setting": "[1]; PAK1, 25° C., 1 hour, 0.1% DMSO, read-out: Kd value, Test PAK Inhibitor Affinity Assay", "value": "< 5", "unit": "µM"}, {"measurement": "Kd", "setting": "[2]; PAK2, 25° C., 1 hour, 0.1% DMSO, read-out: Kd value, Test PAK Inhibitor Affinity Assay", "value": "≥ 10", "unit": "µM"}, {"measurement": "Kd", "setting": "[3]", "value": "≥ 10", "unit": "µM"}, {"measurement": "Kd", "setting": "[4]", "value": "≥ 10", "unit": "µM"}, {"measurement": "Kd", "setting": "[5]", "value": "≥ 10", "unit": "µM"}]}, {"molecule": "Nc1nc(Nc2ccc(S(N)(=O)=O)cc2)nn1C(=O)c1c(F)cccc1F", "note": "[JNJ-7706621]", "values": [{"measurement": "Kd", "setting": "[1]", "value": "≥ 10", "unit": "µM"}, {"measurement": "Kd", "setting": "[2]", "value": "≥ 10", "unit": "µM"}, {"measurement": "Kd", "setting": "[3]", "value": "< 5", "unit": "µM"}]}]}
